Experimental data taken from patent US10106552B2, “Compounds inhibiting eukaryotic elongation factor 2 kinase activity” (Longevica Pharmaceuticals, Inc., priority 2013, dated 2018).
pIC50: −log10 of the molar value.

Biological target: recombinant eEF2K (Homo sapiens (Human), UniProt O00418)
Experiment: eEF2K Kinase-Glo luminescent kinase assay (ATP consumption, peptide substrate)
Format: biochemical
Settings: average of two to four separate experimental measurements, each the average of three replicates
Method: The following compounds were synthesized using the general methods described above. In the table below, IC50 values are in μM and are the average of two to four separate experimental measurements, each consisting in turn of the average of three replicates. IC50 values were calculated using the methods as described in Example 2. MW was determined by mass spectroscopy analysis, and is expressed as M+1.
To determine the IC50 of compounds of the invention, recombinant eEF2K was diluted in an assay buffer in the presence of calmodulin, a calcium-binding messenger protein expressed in eukaryotic cells, and incubated with peptide substrate Ac-RKKYKFNEDTERRRFL in the presence of Adenosine-5′-triphosphate (ATP) and the test compound. The peptide substrate is efficiently and specifically phosphorylated by eEF2K at a single substrate concentration of 100 μM. Using this peptide, eEF2K activity can be quantitatively determined using a Kinase-Glo® luminescent kinase assay kit (Promega) that measures ATP consumption by EF2K during phosphorylation of the substrate. ATP conversion was recorded using Perkin-Elmer Victor Luminometer. Data was plotted using GraphPad software and IC50 was calculated using 3-parameter sigmoidal curve fit.

| Structure (SMILES) | pIC50 |
| --- | --- |
| CC1(C)C/C(=C\c2ccoc2)c2nc3sc(C(N)=O)c(N)c3c(-c3ccoc3)c2C1 [Compound 22, 3-Amino-4-furan-3-yl-8-furan-3-ylmethylene-6,6-dimethyl-5,6,7,8-tetrahydro-thieno[2,3-b]quinoline-2-carboxylic acid amide] | 5.22 |
| CC1(C)CCc2nc3sc(C(N)=O)c(N)c3c(-c3ccco3)c2C1 [Compound 6, 3-Amino-4-furan-2-yl-6,6-dimethyl-5,6,7,8-tetrahydro-thieno[2,3-b]quinoline-2-carboxylic acid amide] | 5.92 |
| CC1(C)CCc2c1nc1sc(C(N)=O)c(N)c1c2-c1cocn1 [Compound 31, 3-Amino-7,7-dimethyl-4-oxazol-4-yl-6,7-dihydro-5H-1-thia-8-aza-s-indacene-2-carboxylic acid amide] | 5.46 |
| NC(=O)c1sc2nc3c(c(-c4ccc(Cl)o4)c2c1N)CC(c1ccccc1)C/C3=C\c1ccc(Cl)o1 (stereo not shown) [Compound 3, 3-Amino-4-(5-chloro-furan-2-yl)-8-(5-chloro-furan-2-ylmethylene)-6-phenyl-5,6,7,8-tetrahydro-thieno[2,3-b]quinoline-2-carboxylic acid amide] | 2.00 |
| CC1(C)CCc2nc3sc(C(N)=O)c(N)c3c(-c3ccoc3)c2C1 [Compound 21, 3-Amino-4-furan-3-yl-6,6-dimethyl-5,6,7,8-tetrahydro-thieno[2,3-b]quinoline-2-carboxylic acid amide] | 5.70 |
| CC1(C)CCc2c1nc1sc(C(N)=O)c(N)c1c2-c1ccc(Br)s1 [Compound 27, 3-Amino-4-(5-bromo-thiophen-2-yl)-7,7-dimethyl-6,7-dihydro-5H-1-thia-8-aza-s-indacene-2-carboxylic acid amide] | 5.82 |
| CC1CC(C)(C)Cc2nc3sc(C(N)=O)c(N)c3c(-c3ccc(Cl)o3)c21 (stereo not shown) [Compound 12, 3-Amino-4-(5-chloro-furan-2-yl)-5,7,7-trimethyl-5,6,7,8-tetrahydro-thieno[2,3-b]quinoline-2-carboxylic acid amide] | 5.30 |
| CC1CC(C)(C)Cc2nc3sc(C(N)=O)c(N)c3c(-c3ccco3)c21 (stereo not shown) [Compound 16, 3-Amino-4-furan-2-yl-5,7,7-trimethyl-5,6,7,8-tetrahydro-thieno[2,3-b]quinoline-2-carboxylic acid amide] | 5.34 |
| CC1(C)CCCc2c1nc1sc(C(N)=O)c(N)c1c2-c1ccc(Cl)o1 [Compound 8, 3-Amino-4-(5-chloro-furan-2-yl)-8,8-dimethyl-5,6,7,8-tetrahydro-thieno[2,3-b]quinoline-2-carboxylic acid amide] | 5.33 |
| CC1(C)CCc2c(nc3sc(C(N)=O)c(N)c3c2-c2ccc(Cl)o2)C1 [Compound 7, 3-Amino-4-(5-chloro-furan-2-yl)-7,7-dimethyl-5,6,7,8-tetrahydro-thieno[2,3-b]quinoline-2-carboxylic acid amide] | 5.80 |
| CC1(C)CCc2c1nc1sc(C(N)=O)c(N)c1c2-c1ccc(Cl)s1 [Compound 24, 3-Amino-4-(5-chloro-thiophen-2-yl)-7,7-dimethyl-6,7-dihydro-5H-1-thia-8-aza-s-indacene-2-carboxylic acid amide] | 5.85 |
| CC1(C)CCc2nc3sc(C(N)=O)c(N)c3c(-c3ccsc3)c2C1 [Compound 20, 3-Amino-6,6-dimethyl-4-thiophen-3-yl-5,6,7,8-tetrahydro-thieno[2,3-b] quinoline-2-carboxylic acid amide] | 5.66 |
| Cn1cc(-c2c3c(nc4sc(C(N)=O)c(N)c24)C(C)(C)CCC3)cn1 [Compound 39, 3-Amino-8,8-dimethyl-4-(1-methyl-1H-pyrazol-4-yl)-5,6,7,8-tetrahydro-thieno[2,3-b]quinoline-2-carboxylic acid amide] | 5.85 |
| CC1(C)CCc2c(nc3sc(C(N)=O)c(N)c3c2-c2ccc(Cl)c(Cl)c2)C1 [Compound 11, 3-Amino-4-(3,4-dichloro-phenyl)-7,7-dimethyl-5,6,7,8-tetrahydro-thieno[2,3-b]quinoline-2-carboxylic acid amide] | 4.64 |
| CC1(C)C/C(=C\c2cccc(Cl)c2F)c2nc3sc(C(N)=O)c(N)c3c(-c3cccc(Cl)c3F)c2C1 [Compound 14, 3-Amino-8-(3-chloro-2-fluoro-benzylidene)-4-(3-chloro-2-fluoro-phenyl)-6,6-dimethyl-5,6,7,8-tetrahydro-thieno[2,3-b]quinoline-2-carboxylic acid amide] | 2.30 |
| CC1(C)C/C(=C\c2ccc(Cl)o2)c2nc3sc(C(N)=O)c(N)c3c(-c3ccc(Cl)o3)c2C1 [Compound 1, 3-Amino-4-(5-chloro-furan-2-yl)-8-(5-chloro-furan-2-ylmethylene)-6,6-dimethyl-5,6,7,8-tetrahydro-thieno[2,3-b]quinoline-2-carboxylic acid amide] | 5.57 |
| CCCC1C/C(=C\c2ccc(Cl)o2)c2nc3sc(C(N)=O)c(N)c3c(-c3ccc(Cl)o3)c2C1 (stereo not shown) [Compound 5, 3-Amino-4-(5-chloro-furan-2-yl)-8-(5-chloro-furan-2-ylmethylene)-6-propyl-5,6,7,8-tetrahydro-thieno[2,3-b]quinoline-2-carboxylic acid amide] | 5.22 |
| Cc1csc(-c2c3c(nc4sc(C(N)=O)c(N)c24)C(C)(C)CC3)n1 [Compound 32, 3-Amino-7,7-dimethyl-4-(4-methyl-thiazol-2-yl)-6,7-dihydro-5H-1-thia-8-aza-s-indacene-2-carboxylic acid amide] | 5.42 |
| CC1(C)CCc2nc3sc(C(N)=O)c(N)c3c(-c3cncs3)c2C1 [Compound 33, 3-Amino-6,6-dimethyl-4-thiazol-5-yl-5,6,7,8-tetrahydro-thieno[2,3-b]quinoline-2-carboxylic acid amide] | 5.96 |
| CC1(C)CCc2c1nc1sc(C(N)=O)c(N)c1c2-c1ccco1 [Compound 15, 3-Amino-4-furan-2-yl-7,7-dimethyl-6,7-dihydro-5H-1-thia-8-aza-s-indacene-2-carboxylic acid amide] | 5.60 |
| NC(=O)c1sc2nc3c(c(-c4cncs4)c2c1N)CCCC31CCCC1 [Compound 42] | 5.51 |
| CC1(C)CCc2c1nc1sc(C(N)=O)c(N)c1c2-c1ccc(Cl)o1 [Compound 9, 3-Amino-4-(5-chloro-furan-2-yl)-7,7-dimethyl-6,7-dihydro-5H-1-thia-8-aza-s-indacene-2-carboxylic acid amide] | 5.62 |

The next lines start with the values.

| pIC50 | Structure (SMILES) |
| --- | --- |
| 5.96 | CC1(C)CCc2nc3sc(C(N)=O)c(N)c3c(-c3ccc(Cl)o3)c2C1 [Compound 2, 3-Amino-4-(5-chloro-furan-2-yl)-6,6-dimethyl-5,6,7,8-tetrahydro-thieno[2,3-b]quinoline-2-carboxylic acid amide] |
| 6.00 | CCC(C)c1c2c(nc3sc(C(N)=O)c(N)c13)C(C)(C)CC2 (stereo not shown) [Compound 26, 3-Amino-4-sec-butyl-7,7-dimethyl-6,7-dihydro-5H-1-thia-8-aza-s-indacene-2-carboxylic acid amide] |
| 6.40 | CC1(C)CCc2c1nc1sc(C(N)=O)c(N)c1c2-c1cncs1 [Compound 28, 3-Amino-7,7-dimethyl-4-thiazol-5-yl-6,7-dihydro-5H-1-thia-8-aza-s-indacene-2-carboxylic acid amide] |
| 6.10 | CC1(C)CCc2c1nc1sc(C(N)=O)c(N)c1c2-c1sccc1Br [Compound 34, 3-Amino-4-(3-bromo-thiophen-2-yl)-7,7-dimethyl-6,7-dihydro-5H-1-thia-8-aza-s-indacene-2-carboxylic acid amide] |
| 5.96 | CC1(C)CCc2c1nc1sc(C(N)=O)c(N)c1c2C1CC1 [Compound 19, 3-Amino-4-cyclopropyl-7,7-dimethyl-6,7-dihydro-5H-1-thia-8-aza-s-indacene-2-carboxylic acid amide] |
| 6.00 | CC1(C)CCc2c(nc3sc(C(N)=O)c(N)c3c2-c2ccco2)C1 [Compound 10, 3-Amino-4-furan-2-yl-7,7-dimethyl-5,6,7,8-tetrahydro-thieno[2,3-b]quinoline-2-carboxylic acid amide] |
| 6.40 | CC1CC(C)(C)Cc2nc3sc(C(N)=O)c(N)c3c(-c3cncs3)c21 (stereo not shown) [Compound 36, 3-Amino-5,7,7-trimethyl-4-thiazol-5-yl-5,6,7,8-tetrahydro-thieno[2,3-b]quinoline-2-carboxylic acid amide] |
| 6.40 | Cc1ncsc1-c1c2c(nc3sc(C(N)=O)c(N)c13)C(C)(C)CC2 [Compound 40, 3-Amino-7,7-dimethyl-4-(4-methyl-thiazol-5-yl)-6,7-dihydro-5H-1-thia-8-aza-s-indacene-2-carboxylic acid amide] |
| 6.05 | CC1(C)CCc2c1nc1sc(C(N)=O)c(N)c1c2-c1ccsc1 [Compound 18, 3-Amino-7,7-dimethyl-4-thiophen-3-yl-6,7-dihydro-5H-1-thia-8-aza-s-indacene-2-carboxylic acid amide] |
| 5.96 | CC1(C)CCc2c1nc1sc(C(N)=O)c(N)c1c2-c1ccoc1 [Compound 17, 3-Amino-4-furan-3-yl-7,7-dimethyl-6,7-dihydro-5H-1-thia-8-aza-s-indacene-2-carboxylic acid amide] |
| 6.52 | CC1(C)CCCc2c1nc1sc(C(N)=O)c(N)c1c2-c1cncs1 [Compound 38, 3-Amino-8,8-dimethyl-4-thiazol-5-yl-5,6,7,8-tetrahydro-thieno[2,3-b]quinoline-2-carboxylic acid amide] |
| 6.15 | Cn1cc(-c2c3c(nc4sc(C(N)=O)c(N)c24)C(C)(C)CC3)cn1 [Compound 29, 3-Amino-7,7-dimethyl-4-(1-methyl-1H-pyrazol-4-yl)-6,7-dihydro-5H-1-thia-8-aza-s-indacene-2-carboxylic acid amide] |
